These results are taken from ChEMBL document CHEMBL1124021, “Novel type of potential anticancer agents derived from chrysophanol and emodin. Some structure-activity relationship studies” (1988).

The assay concerns L1210. Briefly: In vitro inhibition of L1210 mouse leukemia cell proliferation. The assay is classed as functional. The following applies: read-out: ID50 (the source's name).
Turning to `COc1cc(OC)c2c(c1)C(=O)c1cc(CN(CCCl)CCCl)cc(OC)c1C2=O`, the IC50 is 2.66 µM.

Regarding `CCN(CC)Cc1cc(OC)c2c(c1)C(=O)c1cccc(O)c1C2=O`, the IC50 stood at 11.9 µM.

Consider `CCN(CC)Cc1cc(OC)c2c(c1)C(=O)c1cccc(OC)c1C2=O`, for which the IC50 was 128 µM.

Consider `CCN(CC)Cc1cc(O)c2c(c1)C(=O)c1cccc(O)c1C2=O`, for which the IC50 is 2.75 µM.

Consider `COc1cc(O)c2c(c1)C(=O)c1cc(CN(CCCl)CCCl)cc(O)c1C2=O`, for which the IC50 was 0.023 µM.

Consider `O=C1c2cccc(O)c2C(=O)c2c(O)cc(CN(CCO)CCO)cc21`, for which the IC50 amounted to 5.92 µM.

On to `Cc1cc(O)c2c(c1)C(=O)c1cccc(O)c1C2=O` [CHRYSOPHANOL], for which the IC50 is > 393 µM.

On to `Cc1cc(O)c2c(c1)C(=O)c1cc(O)cc(O)c1C2=O` [EMODIN], for which the IC50 came to 13.3 µM.

For `COc1cccc2c1C(=O)c1c(OC)cc(CN(CCCl)CCCl)cc1C2=O`, the IC50 was 12.5 µM.

Consider `O=C1c2cccc(O)c2C(=O)c2c(O)cc(CN(CCCl)CCCl)cc21`, for which the IC50 was determined as 0.13 µM.

Take `COc1cc(OC)c2c(c1)C(=O)c1cc(CN(CCO)CCO)cc(OC)c1C2=O`: the IC50 was > 27.6 µM.

As for `COc1cc(O)c2c(c1)C(=O)c1cc(CN(CCO)CCO)cc(O)c1C2=O`, the IC50 turned out to be 13.7 µM.

Turning to `CCN(CC)Cc1cc(OC)c2c(c1)C(=O)c1cc(OC)cc(OC)c1C2=O`, the IC50 stood at 6.91 µM.

As for `COc1cc(OC)c2c(c1)C(=O)c1cc(CN(CCCl)CCCl)cc(O)c1C2=O`, the IC50 turned out to be 1.75 µM.

On to `COc1cccc2c1C(=O)c1c(O)cc(CN(CCO)CCO)cc1C2=O`, for which the IC50 was 23.4 µM.

Take `COc1cc(CN(CCCl)CCCl)cc2c1C(=O)c1c(O)cccc1C2=O`: the IC50 was 1.4 µM.

With `CCN(CC)Cc1cc(O)c2c(c1)C(=O)c1cc(OC)cc(O)c1C2=O`, the IC50 is 1.16 µM.

Consider `COc1cccc2c1C(=O)c1c(OC)cc(CN(CCO)CCO)cc1C2=O`, for which the IC50 is > 50 µM.
